Source: ChEMBL document CHEMBL2434921, “New synthetic aliphatic sulfonamido-quaternary ammonium salts as anticancer chemotherapeutic agents” (2013)
Active and inactive are the calls of the source. The rule behind the calls is not given here.

Key:
NUGC-3 [1] = experiment: Growth inhibition of human NUGC3 cells at 3 uM after 48 hrs by SRB assay; values are per cent of control; settings: NUGC-3, 48 h
MDA-MB-231 [2] = experiment: Growth of human MDA-MB-231 cells at 1 uM after 48 hrs by SRB assay; settings: MDA-MB-231, 48 h
ACHN [3] = experiment: Growth inhibition of human ACHN cells after 48 hrs by SRB assay; assay type: functional
ACHN [4] = experiment: Growth inhibition of human ACHN cells at 1 uM after 48 hrs by SRB assay; values are per cent of control
HCT-15 [5] = experiment: Growth of human HCT15 cells at 0.3 uM after 48 hrs by SRB assay; settings: HCT-15, 48 h
MDA-MB-231 [6] = experiment: Growth of human MDA-MB-231 cells at 0.1 uM after 48 hrs by SRB assay; settings: MDA-MB-231, 48 h
NCI-H23 [7] = experiment: Growth inhibition of human NCI-H23 cells at 3 uM after 48 hrs by SRB assay; values are per cent of control; settings: NCI-H23, 48 h
PC-3 [8] = experiment: Growth inhibition of human PC3 cells at 0.1 uM after 48 hrs by SRB assay; values are per cent of control; settings: PC-3, 48 h
NUGC-3 [9] = experiment: Growth inhibition of human NUGC3 cells after 48 hrs by SRB assay; assay type: functional; settings: NUGC-3, 48 h
NUGC-3 [10] = experiment: Growth inhibition of human NUGC3 cells at 10 uM after 48 hrs by SRB assay; values are per cent of control; settings: NUGC-3, 48 h
MDA-MB-231 [11] = experiment: Growth of human MDA-MB-231 cells at 10 uM after 48 hrs by SRB assay; settings: MDA-MB-231, 48 h
NUGC-3 [12] = experiment: Growth of human NUGC3 cells at 0.1 uM after 48 hrs by SRB assay; settings: NUGC-3, 48 h
ACHN [13] = experiment: Growth of human ACHN cells at 0.1 uM after 48 hrs by SRB assay
PC-3 [14] = experiment: Growth inhibition of human PC3 cells at 1 uM after 48 hrs by SRB assay; values are per cent of control; settings: PC-3, 48 h
[15] = molecular target: Rho-related GTP-binding protein RhoB (Homo sapiens) (UniProt P62745); experiment: Transactivation of RhoB (unknown origin) transfected in human HeLa cells at 5 uM measured over 10 secs by dual luciferase reporter gene assay; assay type: cell-based
MDA-MB-231 [16] = experiment: Growth of human MDA-MB-231 cells at 3 uM after 48 hrs by SRB assay; values are per cent of control; settings: MDA-MB-231, 48 h
NCI-H23 [17] = experiment: Growth of human NCI-H23 cells at 10 uM after 48 hrs by SRB assay; settings: NCI-H23, 48 h
HCT-15 [18] = experiment: Growth inhibition of human HCT15 cells at 10 uM after 48 hrs by SRB assay; values are per cent of control; settings: HCT-15, 48 h
HCT-15 [19] = experiment: Growth inhibition of human HCT15 cells after 48 hrs by SRB assay; assay type: functional; settings: HCT-15, 48 h
NCI-H23 [20] = experiment: Growth inhibition of human NCI-H23 cells at 1 uM after 48 hrs by SRB assay; values are per cent of control; settings: NCI-H23, 48 h
MDA-MB-231 [21] = experiment: Growth inhibition of human MDA-MB-231 cells at 0.3 uM after 48 hrs by SRB assay; values are per cent of control; settings: MDA-MB-231, 48 h
HCT-15 [22] = experiment: Growth of human HCT15 cells at 3 uM after 48 hrs by SRB assay; settings: HCT-15, 48 h
ACHN [23] = experiment: Growth of human ACHN cells at 0.3 uM after 48 hrs by SRB assay
PC-3 [24] = experiment: Growth inhibition of human PC3 cells after 48 hrs by SRB assay; assay type: functional; settings: PC-3, 48 h
ACHN [25] = experiment: Growth of human ACHN cells at 10 uM after 48 hrs by SRB assay
NUGC-3 [26] = experiment: Growth of human NUGC3 cells at 0.3 uM after 48 hrs by SRB assay; settings: NUGC-3, 48 h
PC-3 [27] = experiment: Growth of human PC3 cells at 10 uM after 48 hrs by SRB assay; settings: PC-3, 48 h
MDA-MB-231 [28] = experiment: Growth inhibition of human MDA-MB-231 cells after 48 hrs by SRB assay; assay type: functional; settings: MDA-MB-231, 48 h
NCI-H23 [29] = experiment: Growth inhibition of human NCI-H23 cells after 48 hrs by SRB assay; assay type: functional; settings: NCI-H23, 48 h
NUGC-3 [30] = experiment: Growth of human NUGC3 cells at 1 uM after 48 hrs by SRB assay; settings: NUGC-3, 48 h
ACHN [31] = experiment: Growth inhibition of human ACHN cells at 3 uM after 48 hrs by SRB assay; values are per cent of control
HCT-15 [32] = experiment: Growth inhibition of human HCT15 cells at 1 uM after 48 hrs by SRB assay; values are per cent of control; settings: HCT-15, 48 h
NCI-H23 [33] = experiment: Growth of human NCI-H23 cells at 0.3 uM after 48 hrs by SRB assay; settings: NCI-H23, 48 h
HCT-15 [34] = experiment: Growth inhibition of human HCT15 cells at 0.1 uM after 48 hrs by SRB assay; values are per cent of control; settings: HCT-15, 48 h
PC-3 [35] = experiment: Growth inhibition of human PC3 cells at 0.3 uM after 48 hrs by SRB assay; values are per cent of control; settings: PC-3, 48 h
PC-3 [36] = experiment: Growth inhibition of human PC3 cells at 3 uM after 48 hrs by SRB assay; values are per cent of control; settings: PC-3, 48 h
NCI-H23 [37] = experiment: Growth inhibition of human NCI-H23 cells at 0.1 uM after 48 hrs by SRB assay; values are per cent of control; settings: NCI-H23, 48 h

Sequence of Rho-related GTP-binding protein RhoB (Homo sapiens) (P62745 whole entry): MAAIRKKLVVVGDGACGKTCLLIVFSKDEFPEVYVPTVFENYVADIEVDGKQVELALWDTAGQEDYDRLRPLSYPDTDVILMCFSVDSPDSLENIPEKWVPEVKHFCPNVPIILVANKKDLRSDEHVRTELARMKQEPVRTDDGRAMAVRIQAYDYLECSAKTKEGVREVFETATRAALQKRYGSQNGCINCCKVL

Row | SMILES | growth, % of control at 3 µM (NUGC-3 [1]) | growth, % of control at 1 µM (MDA-MB-231 [2]) | GI50 (ACHN [3]) | growth, % of control at 1 µM (ACHN [4]) | growth, % of control at 0.3 µM (HCT-15 [5]) | growth, % of control at 0.1 µM (MDA-MB-231 [6]) | growth, % of control at 3 µM (NCI-H23 [7]) | growth, % of control at 0.1 µM (PC-3 [8]) | GI50 (NUGC-3 [9]) | growth, % of control at 10 µM (NUGC-3 [10]) | growth, % of control at 10 µM (MDA-MB-231 [11]) | growth, % of control at 0.1 µM (NUGC-3 [12]) | growth, % of control at 0.1 µM (ACHN [13]) | growth, % of control at 1 µM (PC-3 [14]) | Activity [15] | growth, % of control at 3 µM (MDA-MB-231 [16]) | growth, % of control at 10 µM (NCI-H23 [17]) | growth, % of control at 10 µM (HCT-15 [18]) | GI50 (HCT-15 [19]) | growth, % of control at 1 µM (NCI-H23 [20]) | also measured
1 | CCCCCCCCCCCCCCCCS(=O)(=O)N(C)CC[N+](C)(C)CC | 17.2% | 51.9% | 1750 nM | 77.8% | 98.4% | 75.8% | 61.6% | 91.4% | 360 nM | 4% | -3.8% | 88% | 96.2% | 54.1% | Active | 36.5% | 13.5% | 26.7% | 1260 nM | 84% | growth, % of control at 0.3 µM (MDA-MB-231 [21]): 77.8%; growth, % of control at 3 µM (HCT-15 [22]): 35.2%; growth, % of control at 0.3 µM (ACHN [23]): 93.9%; GI50 (PC-3 [24]): 570 nM; growth, % of control at 10 µM (ACHN [25]): 21.5%; growth, % of control at 0.3 µM (NUGC-3 [26]): 81.3%; growth, % of control at 10 µM (PC-3 [27]): -18.7%; GI50 (MDA-MB-231 [28]): 540 nM; GI50 (NCI-H23 [29]): 1810 nM; growth, % of control at 1 µM (NUGC-3 [30]): 30%; growth, % of control at 3 µM (ACHN [31]): 52.7%; growth, % of control at 1 µM (HCT-15 [32]): 69.7%; growth, % of control at 0.3 µM (NCI-H23 [33]): 78.3%; growth, % of control at 0.1 µM (HCT-15 [34]): 101%; growth, % of control at 0.3 µM (PC-3 [35]): 87.3%; growth, % of control at 3 µM (PC-3 [36]): 14.2%; growth, % of control at 0.1 µM (NCI-H23 [37]): 80.8%
2 | CCCCCCCCCCCCCCS(=O)(=O)N(C)CC[N+](C)(C)CC | 19% | 63.1% | 1300 nM | 77.1% | 96.8% | 99% | 53.6% | 96.5% | 300 nM | 10.1% | 18.2% | 96.8% | 105% | 57.1% | Active | 36.4% | 16.3% | 21.7% | 1610 nM | 86.6% | growth, % of control at 0.3 µM (MDA-MB-231 [21]): 91.6%; growth, % of control at 3 µM (HCT-15 [22]): 41.1%; growth, % of control at 0.3 µM (ACHN [23]): 104%; GI50 (PC-3 [24]): 340 nM; growth, % of control at 10 µM (ACHN [25]): 25%; growth, % of control at 0.3 µM (NUGC-3 [26]): 95.6%; growth, % of control at 10 µM (PC-3 [27]): -12.3%; GI50 (MDA-MB-231 [28]): 990 nM; GI50 (NCI-H23 [29]): 590 nM; growth, % of control at 1 µM (NUGC-3 [30]): 43.3%; growth, % of control at 3 µM (ACHN [31]): 50.1%; growth, % of control at 1 µM (HCT-15 [32]): 76.3%; growth, % of control at 0.3 µM (NCI-H23 [33]): 94.6%; growth, % of control at 0.1 µM (HCT-15 [34]): 98.2%; growth, % of control at 0.3 µM (PC-3 [35]): 95.3%; growth, % of control at 3 µM (PC-3 [36]): 13.3%; growth, % of control at 0.1 µM (NCI-H23 [37]): 92.5%
3 | CCCCCCCCCCCCCCS(=O)(=O)N(C)CC[N+](C)(CC)CC | 10.6% | 81.5% | 1740 nM | 87.4% | 96.3% | 103% | 16.4% | 114% | 520 nM | 3.1% | 16.5% | 98.7% | 100% | 79.9% | Active | 34.3% | -0.5% | 27% | 2350 nM | 65.4% | growth, % of control at 0.3 µM (MDA-MB-231 [21]): 101%; growth, % of control at 3 µM (HCT-15 [22]): 60.5%; growth, % of control at 0.3 µM (ACHN [23]): 102%; GI50 (PC-3 [24]): 820 nM; growth, % of control at 10 µM (ACHN [25]): 16.4%; growth, % of control at 0.3 µM (NUGC-3 [26]): 104%; growth, % of control at 10 µM (PC-3 [27]): -1.7%; GI50 (MDA-MB-231 [28]): 1220 nM; GI50 (NCI-H23 [29]): 710 nM; growth, % of control at 1 µM (NUGC-3 [30]): 45.7%; growth, % of control at 3 µM (ACHN [31]): 51.7%; growth, % of control at 1 µM (HCT-15 [32]): 88.4%; growth, % of control at 0.3 µM (NCI-H23 [33]): 91%; growth, % of control at 0.1 µM (HCT-15 [34]): 95%; growth, % of control at 0.3 µM (PC-3 [35]): 108%; growth, % of control at 3 µM (PC-3 [36]): 10.5%; growth, % of control at 0.1 µM (NCI-H23 [37]): 96.5%
